We go through 32 compounds from patent publication US11541132B2, “Radiolabeled compounds” (Hoffmann-La Roche Inc., priority 2017, dated 2023).

In assay [1] the target is T1, native Aβ aggregates in human AD brain tissue sections (Homo sapiens, UniProt P05067).
T1 construct: native Aβ aggregates in human AD brain tissue samples; from tissue; host or cells: human AD brain tissue sections
Nature of the assay: Aβ in vitro displacement assay (selectivity counterscreen, [3H]Example 3 autoradiography). Conditions: 1 μM compound; 3 nM [3H]Example 3; human AD brain sections; read-out: sel. counterscreen PCT_INHIB AD @ 1 μM (% displacement of [3H]Example 3). Format: binding. Background: A counterscreen serves to expose hits that act by an unwanted route or on another target.

Assay [2] has as its target T2, native aSyn aggregates in A30P transgenic mouse brain sections (Homo sapiens, UniProt P37840, A30P).
T2 construct: from tissue; host or cells: brain sections (midbrain and pons as ROI) of A30P transgenic mice, line B6.D2-Tg(Thy1-SNCA*30P)31Pjk
Nature of the assay: aSyn in vitro displacement assay ([3H]Example-3 autoradiography). Format: binding, mutant human aSyn gene). As to conditions: 1 μM compound; 3 nM [3H]Example-3; A30P transgenic mouse brain sections; read-out: PCT_INHIB A30P @ 1 μM (% displacement of [3H]Example-3).

T1 sequence (P05067 672-713 limits assumed): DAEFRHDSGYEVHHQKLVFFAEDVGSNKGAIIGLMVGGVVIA

As for `COc1ccc(C(=O)Nc2cnc(N3CCN(c4ccc(C#N)cc4)CC3)nc2)cc1` [Example 97, N-(2-(4-(4-Cyanophenyl)piperazin-1-yl)pyrimidin-5-yl)-4-methoxybenzamide], the inhibition at 1 µM in assay [1] amounted to 106%; in assay [2], 97%.

Regarding `COc1ccc(C(=O)Nc2ccc(N3CCN(c4ccc(C#N)cc4)CC3)cc2)c(C)c1` [Example 168, N-(4-(4-(4-Cyanophenyl)piperazin-1-yl)phenyl)-4-methoxy-2-methylbenzamide], the inhibition at 1 µM turned out to be 96% in assay [1] and 95% in assay [2].

Consider `Cc1cccc(C(=O)Nc2ccc(N3CCN(c4ccccn4)CC3)cn2)c1` [Example 54, 3-Methyl-N-(5-(4-(pyridin-2-yl)piperazin-1-yl)pyridin-2-yl)benzamide], for which the results for the inhibition at 1 µM in assay [1] and in assay [2] were 90% and 82%, respectively.

In the case of `CN1CCN(c2ccc(C(=O)Nc3cnc(N4CCN(c5ccccn5)CC4)cn3)cc2)CC1` [Example 87, 4-(4-Methylpiperazin-1-yl)-N-(5-(4-(pyridin-2-yl)piperazin-1-yl)pyrazin-2-yl)benzamide], the figures for the inhibition at 1 µM in assay [1] and in assay [2] were 98% and 88%, respectively.

As to `CN(C)c1ccc(C(=O)Nc2ccc(N3CCN(c4ccccn4)CC3)cn2)cc1` [Example 46, 4-(Dimethylamino)-N-(5-(4-(pyridin-2-yl)piperazin-1-yl)pyridin-2-yl)benzamide], the inhibition at 1 µM amounted to 96% in assay [1] and 94% in assay [2].

Take `COc1ccc(C(=O)Nc2ccc(N3CCN(c4ccccn4)CC3)nn2)c(F)c1` [Example 40, 2-Fluoro-4-methoxy-N-[6-[4-(2-pyridyl)piperazin-1-yl]pyridazin-3-yl]benzamide]: the inhibition at 1 µM in assay [1] amounted to 92%; in assay [2], 86%.

For the compound `O=C(Nc1cnc(N2CCN(c3ccccn3)CC2)nc1)c1ccc(N2CCOCC2)cc1` [Example 63, 4-Morpholino-N-(2-(4-(pyridin-2-yl)piperazin-1-yl)pyrimidin-5-yl)benzamide], the inhibition at 1 µM in assay [1] came to 94%; in assay [2], 95%.

For `COc1ccc(C(=O)Nc2ccc(N3CCN(c4cc(C)ccn4)CC3)cc2)cc1` [Example 102, 4-Methoxy-N-[4-[4-(4-methyl-2-pyridyl)piperazin-1-yl]phenyl]benzamide], the inhibition at 1 µM in assay [1] came to 88%; in assay [2], 89%.

Consider `COc1ccc(C(=O)Nc2ccc(N3CCN(c4ccc(OC)cc4)CC3)cc2)cc1` [Example 110, 4-Methoxy-N-[4-[4-(4-methoxyphenyl)piperazin-1-yl]phenyl]benzamide], for which the inhibition at 1 µM in assay [1] and in assay [2] was 99% each time.

In the case of `O=C(Nc1ccc(N2CCN(c3ccccn3)CC2)cc1)c1ccc2nccn2c1` [Example 17, N-(4-(4-(Pyridin-2-yl)piperazin-1-yl)phenyl)imidazo[1,2-a]pyridine-6-carboxamide], the inhibition at 1 µM turned out to be 98% in assay [1] and 87% in assay [2].

For `COc1ccc(C(=O)Nc2ccc(N3CCN(c4ncc(C#N)cn4)CC3)cc2)cc1` [Example 143, N-(4-(4-(5-Cyanopyrimidin-2-yl)piperazin-1-yl)phenyl)-4-methoxybenzamide], the inhibition at 1 µM in assay [1] and in assay [2] was 91% in each case.

For `N#Cc1ccc(N2CCN(c3ccc(NC(=O)c4ccc(OCCF)cc4)cc3)CC2)cc1` [Example 117, N-[4-[4-(4-Cyanophenyl)piperazin-1-yl]phenyl]-4-(2-fluoroethoxy)benzamide], the inhibition at 1 µM in assay [1] was 88%; in assay [2], 90%.

As to `COc1ccc(C(=O)Nc2ccc(N3CCN(c4ccccn4)CC3)cc2C)c(F)c1` [Example 29, 2-Fluoro-4-methoxy-N-(2-methyl-4-(4-(pyridin-2-yl)piperazin-1-yl)phenyl)benzamide], the inhibition at 1 µM was 83% in assay [1] and 81% in assay [2].

On to `COc1ccc(C(=O)Nc2ccc(N3CCN(c4ccc(C#N)cc4)CC3)cc2)cc1C` [Example 167, N-(4-(4-(4-Cyanophenyl)piperazin-1-yl)phenyl)-4-methoxy-3-methylbenzamide], for which the inhibition at 1 µM in assay [1] amounted to 88%; in assay [2], 91%.

For the compound `COc1ccc(C(=O)Nc2ccc(N3CCN(c4ccc(C#N)cn4)CC3)cc2)cc1F` [Example 160, N-(4-(4-(5-Cyanopyridin-2-yl)piperazin-1-yl)phenyl)-3-fluoro-4-methoxybenzamide], the inhibition at 1 µM came out at 95% in assay [1] and 96% in assay [2].

With `O=C(Nc1ccc(N2CCN(c3ccccn3)CC2)cc1)c1ccc(N2CCOCC2)cc1` [Example 8, 4-Morpholino-N-(4-(4-(pyridin-2-yl)piperazin-1-yl)phenyl)benzamide], the figures for the inhibition at 1 µM in assay [1] and in assay [2] were 86% and 93%, respectively.

For `COc1ccc(C(=O)Nc2ccc(N3CCN(c4ccccn4)CC3)cc2)c(C)c1` [Example 11, 4-Methoxy-2-methyl-N-(4-(4-(pyridin-2-yl)piperazin-1-yl)phenyl)benzamide], the inhibition at 1 µM in assay [1] was 86%; in assay [2] it was 87%.

Consider `O=C(Nc1ccc(N2CCN(c3cccnc3)CC2)cc1)c1ccc(N2CCOCC2)cc1` [Example 39, 4-Morpholino-N-(4-(4-(pyridin-3-yl)piperazin-1-yl)phenyl)benzamide], for which the inhibition at 1 µM worked out at 69% in assay [1] and 87% in assay [2].

Turning to `COc1ccc(C(=O)Nc2ccc(N3CCN(c4ccc(C#N)cn4)CC3)cc2)c(F)c1` [Example 115, N-[4-[4-(5-Cyano-2-pyridyl)piperazin-1-yl]phenyl]-2-fluoro-4-methoxy-benzamide], the results for the inhibition at 1 µM in assay [1] and in assay [2] were 90% and 87%, respectively.

In the case of `COc1ccc(C(=O)Nc2ccc(N3CCN(c4ccccn4)CC3)nc2)c(F)c1` [Example 34, 2-Fluoro-4-methoxy-N-[6-[4-(2-pyridyl)piperazin-1-yl]-3-pyridyl]benzamide], the inhibition at 1 µM in assay [1] came out at 99%; in assay [2], 84%.

Turning to `COc1ccc(C(=O)Nc2ccc(N3CCN(c4ccccc4C#N)CC3)cc2)cc1` [Example 70, N-{4-[4-(2-Cyanophenyl)piperazin-1-yl]phenyl}-4-methoxybenzamide], the inhibition at 1 µM in assay [1] amounted to 64%; in assay [2], 84%.

In the case of `Cc1ccc(C(=O)Nc2cnc(N3CCN(c4ccccn4)CC3)cn2)cc1` [Example 89, 4-Methyl-N-(5-(4-(pyridin-2-yl)piperazin-1-yl)pyrazin-2-yl)benzamide], the inhibition at 1 µM in assay [1] came out at 88%; in assay [2], 85%.

For `COc1ccc(C(=O)Nc2ccc(N3CCN(c4ccc(C)cn4)CC3)cc2)cn1` [Example 4, 6-Methoxy-N-[4-[4-(5-methyl-2-pyridyl)piperazin-1-yl]phenyl]pyridine-3-carboxamide], the results for the inhibition at 1 µM in assay [1] and in assay [2] were 91% and 89%, respectively.

In the case of `Cc1ccc(C(=O)Nc2ccc(N3CCN(c4cccnc4)CC3)cc2)cc1` [Example 37, 4-Methyl-N-(4-(4-(pyridin-3-yl)piperazin-1-yl)phenyl)benzamide], the inhibition at 1 µM is 97% in assay [1] and 94% in assay [2].

As for `N#Cc1ccc(N2CCN(c3ccc(NC(=O)c4ccncc4)cc3)CC2)nc1` [Example 161, N-(4-(4-(5-Cyanopyridin-2-yl)piperazin-1-yl)phenyl)isonicotinamide], the inhibition at 1 µM in assay [1] came out at 87%; in assay [2], 84%.

In the case of `COc1cccc(C(=O)Nc2ccc(N3CCN(c4ccc(C#N)cn4)CC3)cc2)n1` [Example 91, N-(4-(4-(5-Cyanopyridin-2-yl)piperazin-1-yl)phenyl)-6-methoxypicolinamide], the inhibition at 1 µM is 54% in assay [1] and 85% in assay [2].

With `COc1ccc(C(=O)Nc2ccc(N3CCN(c4ccc(C#N)cn4)CC3)c(F)c2)cc1` [Example 107, N-[4-[4-(5-Cyano-2-pyridyl)piperazin-1-yl]-3-fluoro-phenyl]-4-methoxy-benzamide], the inhibition at 1 µM in assay [1] and in assay [2] was 96% throughout.

Consider `N#Cc1ccc(N2CCN(c3ccc(NC(=O)c4ccc(OCF)cc4)cc3)CC2)nc1` [Example 136, N-(4-(4-(5-cyanopyridin-2-yl)piperazin-1-yl)phenyl)-4-(fluoromethoxy) benzamide], for which the inhibition at 1 µM in assay [1] came out at 92%; in assay [2] it was 91%.

In the case of `O=C(Nc1ccc(N2CCN(c3ccccn3)CC2)cc1)c1ccn2ccnc2c1` [Example 16, N-(4-(4-(Pyridin-2-yl)piperazin-1-yl)phenyl)imidazo[1,2-a]pyridine-7-carboxamide], the inhibition at 1 µM was 97% in assay [1] and 87% in assay [2].

For `Cc1ccc(C(=O)Nc2ccc(N3CCN(c4ccccn4)CC3)cn2)nc1` [Example 53, 5-Methyl-N-(5-(4-(pyridin-2-yl)piperazin-1-yl)pyridin-2-yl)picolinamide], the results for the inhibition at 1 µM in assay [1] and in assay [2] were 86% and 82%, respectively.

Regarding `CN1CCN(c2ccc(C(=O)Nc3ccc(N4CCN(c5ccccn5)CC4)cn3)cc2)CC1` [Example 81, 4-(4-Methylpiperazin-1-yl)-N-[5-(4-pyridin-2-ylpiperazin-1-yl)pyridin-2-yl]benzamide], the figures for the inhibition at 1 µM in assay [1] and in assay [2] were 92% and 90%, respectively.

`O=C(Nc1ccc(N2CCN(c3ccccn3)CC2)cn1)c1ccccc1F` [Example 47, 2-Fluoro-N-(5-(4-(pyridin-2-yl)piperazin-1-yl)pyridin-2-yl)benzamide]: the inhibition at 1 µM in assay [1] was found to be 94%; in assay [2], 83%.
